Experimental data reported in patent publication US20170252306A1, “Pharmaceutical Compositions for Preventing and Treating Th1 or Th2 mediated Immune Disease Comprising 4H3MC(4-Hydroxy-3-methoxycinnamaldehyde) as an Active Ingredient” (GWANGJU INSTITUTE OF SCIENCE AND TECHNOLOGY, priority 2016, published 2017).

Legend:
[1] = system: PKCθ, ERK and p38 kinase; assay: Western blot of phospho-PKCθ, ERK and p38 in activated Jurkat T cells; assay type: cell-based, human
Description: (§1) Jurkat T cells (5×10^5) or human PBLs (1×10^6) were stimulated with anti-CD3 (OKT3, 10 μg/ml)/CD28 (2 μg/ml) or PMA (100 nM)/A23187 (1 μM). For anti-CD3/CD28 stimulation, cells were placed on a culture dish coated with anti-CD3 antibody, and were then treated with anti-CD28 (2 μg/ml) antibody. For superantigen stimulation, T cells were incubated with SEE (1 μg/ml)-pulsed Raji B cells. For pre- or post-treatment experiments, various concentrations of 4H3MC or HCA were added 30 minutes or 60 minutes before stimulation.
Jurkat T cells were lysed by cold lysis buffer (1% Triton X-100, 150 mM NaCl, 20 mM Tris, pH 7.5, protease inhibitor and phosphatase inhibitor) for 1 hour, and then centrifuged at 4° C. at 16,000×g for 30 minutes. About 100 μg of the extract lysate was separated through 10% SDS-PAGE. Proteins were transferred into a nitrocellulose membrane by means of Trans-Blot SD semidry transfer cell (Bio-Rad, Hercules, Calif.). The membrane was blocked in 5% skim milk for 1 hour, washed, and then incubated with the indicated antibodies in 3% skim milk overnight. Excess primary antibody was removed by washing the membrane with TBST, and then the membrane was incubated with peroxidase-conjugated secondary antibody for 2 hours. After washing with TBST, bands were visualized by Western blotting detection reagent and then exposed to x-ray film.

[2] = system: PKC; assay: PKC activity measurement in Jurkat T cell lysate (ELISA-based kinase assay); assay type: biochemical, human; settings: Jurkat T cell cytosol fraction, compound 0.01-50 μM, PMA 100 nM
Description: Jurkat T cells (1×10^6) were suspended in lysis buffer (1% Triton X-100, 150 mM NaCl, 20 mM Tris pH 7.5, protease inhibitor, phosphatase inhibitor), and then kept at 4° C. for 1 hour and centrifuged at 14,000×g for 30 minutes. Cell lysate was incubated with 4H3MC ([…]), HCA ([…]) or STSN (10 nM) at 4° C. for 30 minutes. PMA (100 nM) was added, and PKC activity was measured with a nonradioactive protein kinase assay based on ELISA. The assay was developed with tetramethylbenzidine substrate, and the color developed proportionally to PKC phosphotransferase activity. The intensity of the color was measured at 450 nm. The data were expressed as relative kinase activity.

[3] = system: atopic skin disease BALB/c mice; assay: DNCB/mite extract-induced atopic skin disease in mice; assay type: in vivo; settings: 4H3MC 50 mg/kg orally every day for 4 weeks
Description: With reference to a previously reported publication, atopic skin disease was induced using DNCB and a mite extract. BALB/c mice were divided into four groups, and then the skin was peeled off by touching each earlobe five times with a surgical tape (Seo-il Chemistry, Hwa-sung, Korea). On day 0, 20 μl of DNCB (1%) was applied to each peeled earlobe, and on day 4, 20 μl of a mite extract (10 mg/mL) was applied. DNCB and the mite extract were alternately applied once a week for 4 weeks. From day 1, 4H3MC (50 mg/kg) was administered orally everyday for 4 weeks. Using a thickness meter (Kori Seiki MFG Co., Japan), the ear thickness was measured at 24 hours after application of DNCB or the mite extract. After 28 days, blood was sampled, and the serum portions were stored at […]. After blood sampling, the ear tissue was cut and used for histopathological analysis.

[4] = system: Jurkat T cells; assay: Cell death assay (microscopy, 7-AAD/annexin V flow cytometry, Hoechst staining); assay type: cell-based, human; settings: 16 hours
Description: Cell death of Jurkat T cells was examined using a double staining method with 7-AAD and annexin V-PE. Jurkat T cells (1×10^6) were indicated concentrations of 4H3MC for 16 hours, and then suspended in 200 μl of HBSS buffer comprising 7-AAD (1 μg/ml) and were incubated at 37° C. for 10 minutes. After 10 minutes, the cells were incubated with 200 μl of HBSS buffer comprising V-PE (20 μg/ml) and analyzed immediately on a BD FACS Canto™ II Flow Cytometer (BD Biosciences). All experiments were performed at least three times.
Jurkat T cells were treated with 10 μM of 4H3MC for 16 hours, and then pelleted onto a PLL-coated cover glass slide (18-mm diameter; Fisher Scientific, Pittsburgh, Pa.) using a cytospin centrifuge. The pelleted cells were fixed in 2% para-formaldehyde at room temperature for 10 minutes, and then washed three times with PBS. As control, cells were stained with TRITC-phalloidin for detecting actin. The slide was incubated for 2 minutes in PBS containing Hoechst dye (1:105) at room temperature, and then the cells were examined using an FV1000 confocal microscope.

[5] = system: Jurkat T cells and human PBLs; assay: IL-2 secretion from activated T cells (ELISA); assay type: cell-based; settings: for IC50: Jurkat T cells and human PBLs, PMA/A23187 stimulation, supernatants after 36 hours, ELISA, read-out: IC50 of inhibition of IL-2 secretion
Description: as §1
Jurkat T cells or human PBLs were stimulated in the same manner as described above with respect to T-cell stimulation and treatment with 4H3MC or HCA. At the indicated time points, the supernatants were collected, and the concentrations of IL-2 in the supernatants were measured using a Duo set Human IL-2 ELISA kit (R&D Systems).

[6] = system: Jurkat T cells and human PBLs; assay: IL-2 mRNA expression in activated T cells (real-time PCR); assay type: cell-based
Description: as §1
Total RNA was isolated from Jurkat T cells using TRIZOL reagent (JBI, Korea). Reverse transcription of the RNA was performed using RT Pre-Mix (Intron, Korea). The primers and PCR conditions were as follows: […]
The amplification profile was composed of denaturation at 94° C. for 30 seconds, annealing at 60° C. for 20 seconds, and extension at 72° C. for 40 seconds. 30 cycles were preceded by denaturation at […] for 7 minutes. In some experiments, the expression levels of IL-2 mRNA were evaluated by real-time RT-PCR. Total RNA was isolated and cDNA was synthesized as described above. PCR amplification was performed in Step One Real-time PCR system (Applied Biosystems, Foster city, CA) for continuous fluorescence detection system using SYBR (Takara, Japan). Each PCR reaction was performed under the following conditions: 94° C. for 30 sec, 60° C. for 30 sec and 72° C. for 30 sec, plate read (detection of fluorescent product) for cycles, followed by extension at 72° C. for 7 min. Melting curve analysis was done to characterize the double-stranded DNA product. The levels of IL-2 mRNA normalized for GAPDH were expressed as fold changes relative to that of untreated controls. All experiments were performed at least three times.

[7] = system: AP-1, NF-κB and NFAT; assay: AP-1, NF-κB and NFAT luciferase activity assays; assay type: cell-based, human; settings: transfected Jurkat T cells, 4H3MC 10 μM pretreatment 1 hour, PMA/A23187 16 hours
Description: Jurkat T cells (1.5×10^6) were transfected with 100 μl of Amaxa's Nucleofector solution (Amaxa, Germany) containing 3 μg of pGL3-AP-1, pGL3-NF-κB or pGL3-NFAT Luc plasmids, and then the cells were transferred to complete medium and cultured at 37° C. After 48 hours of transfection, the transfected cells were pretreated with 4H3MC (10 μM) for 1 hour, and then stimulated with PMA/A23187 for 16 hours. After […], the cells were harvested and lysed with a lysis buffer for luciferase assay (Promega, Madison, Wis.). Cellular debris was removed from lysed proteins by centrifugation at 16,000×g at 4° C. for 30 minutes. Luciferase activity was measured with a Centro LB 960 Luminometer (Berthold Technologies, Germany).

[8] = biological target: T1, PKCθ (Homo sapiens, UniProt Q04759); assay: PKCθ phosphorylation and accumulation at the immunological synapse (confocal imaging); assay type: cell-based; settings: Jurkat T cells pretreated with 4H3MC 10 μM, conjugates with SEE-pulsed Raji B cells
T1 construct: endogenous in cells; host or cells: Jurkat T cells conjugated with SEE-pulsed Raji B cells
Description: Jurkat T cells were pretreated with 10 μM of 4H3MC for 1 hour, while Raji B cells were stained with 1 μM of CMFDA green tracker for 30 minutes. After washing twice with RPMI medium, Raji B cells were incubated with SEE (1 μg/ml) at 37° C. for 30 minutes. SEE-conjugated Raji B cells were incubated with 4H3MC-treated Jurkat T cells for 10 minutes to form an immunological synapse, and then placed on glass coverslips. The cells were fixed with 2% paraformaldehyde and washed with PBS. After washing, the cells were permeabilized with 0.1% TritonX-100 and incubated with primary antibodies (antibodies against CD3, LFA-1, t-PKCθ, p-PKCθ) overnight. On the next day, the cells were washed with PBS, and then incubated with secondary antibodies (cy3-conjugated goat anti-mouse IgG, Texas Red-conjugated goat anti-rabbit IgG antibodies) at room temperature for 1 hour. After washing, the cells were placed on a slide glass using Dako fluorescent mounting medium (Dako, Denmark), followed by drying. The dried slide samples were examined with an FV1000 confocal laser scanning microscope (Olympus), and CD3, LFA-1, t-PKCθ and p-PKCθ accumulation at the immunological synapse was observed and analyzed.

[9] = Jurkat T cells pre-activated 30 minutes with anti-CD3/CD28 or PMA/A23187, then 4H3MC 10 μM
[10] = Jurkat T cells, 4H3MC 10 μM pretreatment 1 hour, anti-CD3/CD28 or PMA/A23187

T1 sequence (Q04759 whole entry): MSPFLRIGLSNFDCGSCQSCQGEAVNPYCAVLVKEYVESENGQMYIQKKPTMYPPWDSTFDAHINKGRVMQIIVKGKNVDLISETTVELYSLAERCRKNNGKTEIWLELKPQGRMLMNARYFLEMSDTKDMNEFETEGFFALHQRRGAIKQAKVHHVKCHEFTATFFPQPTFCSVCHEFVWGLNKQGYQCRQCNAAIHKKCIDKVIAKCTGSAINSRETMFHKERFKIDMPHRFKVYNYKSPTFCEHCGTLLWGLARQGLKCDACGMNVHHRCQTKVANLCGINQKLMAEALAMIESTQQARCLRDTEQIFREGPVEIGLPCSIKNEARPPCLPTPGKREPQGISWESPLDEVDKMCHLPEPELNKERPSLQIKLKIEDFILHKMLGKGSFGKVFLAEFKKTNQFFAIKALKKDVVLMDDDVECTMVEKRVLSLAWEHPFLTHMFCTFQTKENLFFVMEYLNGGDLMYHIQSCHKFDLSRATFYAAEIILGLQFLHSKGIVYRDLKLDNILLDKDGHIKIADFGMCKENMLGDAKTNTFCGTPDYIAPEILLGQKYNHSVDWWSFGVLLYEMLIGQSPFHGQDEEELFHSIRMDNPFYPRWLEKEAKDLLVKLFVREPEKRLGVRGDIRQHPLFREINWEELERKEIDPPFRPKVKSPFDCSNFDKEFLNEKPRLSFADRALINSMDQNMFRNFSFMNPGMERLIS

Compound | phosphorylated forms of PKCθ, ERK and p38, post-treatment [1, 9] | phosphorylation of ERK and p38 [1, 10] | phosphorylation of PKCθ [1, 10] | PKC activity [2] | ear symptoms (flushed and swollen) 28 days after induction [3] | ear thickness [3] | apoptosis or necrosis ([4]; 10-100 μM) | apoptosis or necrosis by Hoechst staining ([4]; effective concentration (10 μM)) | necrosis ([4]; high concentrations (250 μM)) | IC50 [5] | fold effectiveness versus HCA in inhibition of IL-2 in T cells ([5]; comparison of IC50 values of 4H3MC and HCA) | time-dependent IL-2 secretion ([5]; human PBLs, 4H3MC 10 μM pretreatment 1 hour, PMA/A23187) | IL-2 expression (mRNA) ([6]; Jurkat T cells and human PBLs pretreated 1 hour with 4H3MC 0-250 μM, then PMA/A23187 or anti-CD3/CD28 for 6 hours) | concentration at which dramatic inhibition of IL-2 expression was seen ([6]; Jurkat T cells and human PBLs, pretreatment 1 hour, PMA/A23187 or anti-CD3/CD28) | IL2 mRNA expression, post-treatment [6, 9] | time-dependent IL-2 mRNA expression ([6]; Jurkat T cells, 4H3MC 10 μM pretreatment 1 hour, anti-CD3/CD28 or PMA/A23187 for various times) | luciferase activities of NF-κB, AP-1 and NFAT [7] | phosphorylation and accumulation of PKCθ at the IS [8]
COc1cc(C=CC=O)ccc1O [4H3MC, 4-Hydroxy-3-methoxycinnamaldehyde] | significantly reduced | dramatically reduced anti-CD3/CD28- and PMA/A23187-induced phosphorylation of ERK and p38 | significantly blocked phosphorylation of PKCθ | significantly inhibited PKC-specific activity with the lower effective concentration than HCA | such symptoms were alleviated | became significantly thinner from 8 days | did not induce apoptosis or necrosis | does not induce apoptosis or necrosis at its effective concentration | induced necrosis in some Jurkat T cells | ~2.5 µM | ~5 fold | significantly reduced | significantly inhibited IL-2 expression in a concentration-dependent manner | 2 to 10 µM | effectively reduced the expression of IL2 mRNA in pre-activated Jurkat T cells | inhibited IL-2 mRNA expression at the early time point (about 3 hours) after stimulation which lasted over 6 hours | considerably reduced PMA/A23187-induced luciferase activities of NF-κB, AP-1 and NFAT | significantly reduced the phosphorylation as well as accumulation of PKCθ at the IS
O=C(O)C=Cc1ccc(O)cc1 [HCA, p-hydroxycinnamic acid, reference compound] |  |  |  | inhibit PKC activity in vitro |  |  |  |  |  | 15 to 18 µM |  |  |  |  |  |  |  | 
